Results published in paper PMC12251151, “Understanding Anti-Obesity Potential of Four Porphyrin Compounds by Investigating Pancreatic Lipase Inhibition” (Molecules, 2025).
Like-named read-outs stand apart in the source and are kept apart here.

Experiments:
[1] = target: T1, pancreatic lipase (PL) (Sus scrofa, UniProt P00591); assay: Mode of pancreatic lipase inhibition (reversibility, Lineweaver-Burk kinetics); assay type: biochemical, porcine; details: for Reversibility of PL inhibition: enzyme concentration vs reaction rate plots; for Ki: uncompetitive model, intercept replot
T1 construct: lipase (porcine pancreas); purchased Shanghai Yuanye Co., Ltd., Shanghai, China; host or cells: porcine pancreas
T1 sequence (P00591 1-450): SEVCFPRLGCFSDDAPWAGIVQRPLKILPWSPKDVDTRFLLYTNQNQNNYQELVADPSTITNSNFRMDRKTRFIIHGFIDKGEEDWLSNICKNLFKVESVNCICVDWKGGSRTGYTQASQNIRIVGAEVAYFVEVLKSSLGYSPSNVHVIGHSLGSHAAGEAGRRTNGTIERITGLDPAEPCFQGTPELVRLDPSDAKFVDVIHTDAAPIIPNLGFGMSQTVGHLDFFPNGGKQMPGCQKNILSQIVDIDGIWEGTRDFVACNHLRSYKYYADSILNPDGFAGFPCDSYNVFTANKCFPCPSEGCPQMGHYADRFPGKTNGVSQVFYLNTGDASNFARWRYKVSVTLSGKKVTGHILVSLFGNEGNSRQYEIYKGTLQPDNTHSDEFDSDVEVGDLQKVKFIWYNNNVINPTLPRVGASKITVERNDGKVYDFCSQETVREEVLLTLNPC
Protocol: In the formula, v , Vmax, Km, and Ki represent reaction rate, maximum reaction rate, Michaelis constant, and free enzyme inhibition constant, respectively. [S] denotes the substrate concentration. [I] denotes the inhibitor concentration.
By analyzing the relationship between enzyme concentration and reaction rate, a fitting straight line was drawn to determine whether it was reversible.
The concentration of PL was fixed at 5 mg/mL, and the concentration of the substrate 4-nitrophenyl laurate was changed (0.40, 0.80, 1.20, 1.60 mg/mL). By analyzing the relationship between the concentration of different substrates and the reaction rate of the enzyme, the Lineweaver–Burk double reciprocal curve was plotted to determine the inhibition type and calculate the inhibition constant.

[2] = target: T1, pancreatic lipase (PL); assay: In vitro stability (temperature and acid-base pre-treatment, then PL inhibition); assay type: physicochemical, porcine; details: 20 min treatment with buffers pH 2.0-10.0
Protocol: Temperature stability study. Sample pre-treatment: 1000 μL samples were bathed in water at different temperatures (30, 40, 50, 60, 70, 80, 90, 100 °C) for 20 min, and cooled rapidly.
Acid-base stability study. Sample pre-treatment: 1000 μL samples were treated with buffers of different pH (2.0, 3.0, 4.0, 5.0, 6.0, 7.0, 8.0, 9.0, and 10.0) for 20 min, and then the pH was adjusted back to 6.9–7.3.
PL inhibition experiments were the same as Section 3.2.1. A total of 200 μL pre-treated four porphyrin compounds, 500 μL of 4-nitrophenyl laurate (0.80 mg/mL), 400 μL of Tris-HCl buffer (pH 8.2, 0.1 mol/L), and 300 μL of pancreatic lipase (5 mg/mL) were reacted in an incubator at 37 °C for 2 h. The reaction solution was centrifuged at 12,000 rpm for 5 min, and 200 μL of the supernatant was added to a 96-well plate. The absorbance at 420 nm was measured. The temperature stability range was determined by comparing the inhibition rate of the samples treated at different temperatures. The range of acid-base stability was determined by comparing the changes in inhibition rate.

[3] = target: T1, pancreatic lipase (PL); assay: Fluorescence quenching and binding interaction with PL (Stern-Volmer, double logarithmic, Van't Hoff); design: species or system porcine; details: for Fluorescence quenching mechanism on PL: Stern-Volmer analysis; for Fluorescence quenching mechanism on PL / ΔH^0 / ΔS^0: 298-310 K; for ΔH^0 / ΔS^0: Van't Hoff; for Main driving forces of binding to PL: from signs of ΔH^0 and ΔS^0; for Kd: read-out: Ka (binding constant) (converted)
Excerpt: Judged by the Stern–Volmer equation, the formula is referred to (3):(3) F0/F=1+KSV[Q]=1+Kqτ0[Q],
The modified Stern–Volmer equation [34], formula reference (4):(4) F0/F=e^KSV[Q]=e^Kqτ0[Q],
The double logarithmic equation:(5) logF0−F/F=logKa+nlog[Q],
In the formula, F0 and F are the fluorescence intensities of the enzyme before and after the addition of four porphyrin compounds. KSV and Kq represent the fluorescence quenching constant and the quenching rate constant, respectively. τ0 (10^−8 s) is the average lifetime of the fluorescent molecule in the absence of the fluorescence quencher. [Q] denotes the concentration of the porphyrin compound. Ka is the binding constant. n is the number of binding sites.
The relevant thermodynamic parameters were calculated by Equations (6) and (7), and the Van’t Hoff curves of four porphyrin compounds and enzymes were obtained:(6) lnKa=−ΔH^0/RT+ΔS^0/R, (7) ΔG^0=ΔH^0−TΔS^0=−RTlnKa,
The method of Li et al. was referred to and appropriate changes were made. A series of concentrations of porphyrin compounds were mixed with pancreatic lipase (5 mg/mL) at a volume ratio of 1:1 and incubated at 298, 304, and 310 K for 5 min. The excitation wavelength of the Hitachi fluorescence spectrometer F-7000 ([…], Japan) was set to 280 nm, the slit width was set to 5 nm, and the scanning range was set to 300–500 nm. In order to eliminate the influence of ‘internal filtering effect’ [42], the following formula is used for correction. Fcor=Fobse^(Aex+Aem)/2 , where Fcor and Fobs are the corrected fluorescence intensity and the experimentally measured fluorescence intensity, and Aex and Aem are the UV absorption values of the system at the excitation and emission wavelengths, respectively.

SMILES | Reversibility of PL inhibition [1] | Ki [1] [µM] | pH range in which PL inhibitory activity changed little (acid-base stability) [2] | Fluorescence quenching mechanism on PL [3] | Kq (quenching rate constant) ([3]; T 298 K) | Ksv (fluorescence quenching constant) ([3]; T 298 K) | n (number of binding sites) ([3]; T 298 K) | ΔG^0 ([3]; T 298 K) [kcal/mol] | Kq (quenching rate constant) ([3]; T 304 K) | Ksv (fluorescence quenching constant) ([3]; T 304 K) | n (number of binding sites) ([3]; T 304 K) | ΔG^0 ([3]; T 304 K) [kcal/mol] | Kq (quenching rate constant) ([3]; T 310 K) | Ksv (fluorescence quenching constant) ([3]; T 310 K) | n (number of binding sites) ([3]; T 310 K) | ΔG^0 ([3]; T 310 K) [kcal/mol] | ΔH^0 [3] [kcal/mol] | ΔS^0 [3] [J/mol/k] | Main driving forces of binding to PL [3] | Kd ([3]; T 298 K) [µM] | further results
O=C([O-])c1ccc(C2=C3C=CC(=N3)C(c3ccc(C(=O)[O-])cc3)=C3C=CC(=N3)C(=c3ccc(=C([O-])[O-])cc3)c3ccc([n-]3)C(c3ccc(C(=O)[O-])cc3)=C3C=CC2=N3)cc1.[67Cu+2].[H+].[H+].[H+].[H+] [Cu-TCPP, Cu (II) meso-Tetra (4-carboxyphenyl) porphine] | reversible | 196.15 ± 0.131 | 2.0~10.0 pH | static quenching | 2.36 ± 0.01 ×10^12 L/mol/s | 2.36 ± 0.01 ×10^4 L/mol | 0.93 | -5.631 ± 0.019 | 2.33 ± 0.03 ×10^12 L/mol/s | 2.33 ± 0.03 ×10^4 L/mol | 0.95 | -5.851 ± 0.012 | 2.32 ± 0.03 ×10^12 L/mol/s | 2.32 ± 0.03 ×10^4 L/mol | 0.97 | -6.064 ± 0.012 | 5.1 ± 0.0096 | 150.70 ± 0.07 | hydrophobic forces | – | Km ([1]; inhibitor C 29.33 μM): 0.192 ± 0.0049 µM; Vmax ([1]; inhibitor C 29.33 μM): 0.0052 ± 0.0013 ΔOD/min; Km ([1]; inhibitor C 58.66 μM): 0.164 ± 0.0037 µM; Vmax ([1]; inhibitor C 58.66 μM): 0.0044 ± 0.0009 ΔOD/min; Km ([1]; inhibitor C 117.33 μM): 0.133 ± 0.0022 µM; Vmax ([1]; inhibitor C 117.33 μM): 0.0036 ± 0.0006 ΔOD/min; Km ([1]; inhibitor C 175.99 μM): 0.112 ± 0.0046 µM; Vmax ([1]; inhibitor C 175.99 μM): 0.0030 ± 0.0012 ΔOD/min; Km ([1]; inhibitor C 234.66 μM): 0.0988 ± 0.0017 µM; Vmax ([1]; inhibitor C 234.66 μM): 0.0026 ± 0.0005 ΔOD/min; Ka (binding constant) ([3]; T 298 K): 0.13 ± 0.01 ×10^5 L/mol; Ka (binding constant) ([3]; T 304 K): 0.16 ± 0.01 ×10^5 L/mol; Ka (binding constant) ([3]; T 310 K): 0.19 ± 0.01 ×10^5 L/mol
Nc1ccc(-c2c3nc(c(-c4ccc(N)cc4)c4ccc([nH]4)c(-c4ccc(N)cc4)c4nc(c(-c5ccc(N)cc5)c5ccc2[nH]5)C=C4)C=C3)cc1 [TAPP, 5,10,15,20-Tetrakis (4-aminophenyl) porphyrin] | reversible | 149.9 ± 0.195 | 2.0~9.0 pH | static quenching | 9.70 ± 0.11 ×10^12 L/mol/s | 9.70 ± 0.11 ×10^4 L/mol | 1.05 | -7.118 ± 0.012 | 8.80 ± 0.06 ×10^12 L/mol/s | 8.80 ± 0.06 ×10^4 L/mol | 1.01 | -6.938 ± 0.017 | 8.17 ± 0.08 ×10^12 L/mol/s | 8.17 ± 0.08 ×10^4 L/mol | 0.96 | -6.707 ± 0.014 | -17.28 ± 0.012 | −142.66 ± 0.06 | hydrogen bonds and van der Waals forces | 6.02 | Vmax ([1]; inhibitor C 118.55 μM): 0.0023 ± 0.0003 ΔOD/min; Vmax ([1]; inhibitor C 177.83 μM): 0.0018 ± 0.0003 ΔOD/min; Vmax ([1]; inhibitor C 237.11 μM): 0.0016 ± 0.0006 ΔOD/min; Vmax ([1]; inhibitor C 266.75 μM): 0.0015 ± 0.0003 ΔOD/min; Vmax ([1]; inhibitor C 296.38 μM): 0.0014 ± 0.0005 ΔOD/min; Kd ([3]; T 304 K): 10.3 µM; Kd ([3]; T 310 K): 18.5 µM
O=C(O)c1ccc(-c2c3nc(c(-c4ccc(C(=O)O)cc4)c4ccc([nH]4)c(-c4ccc(C(=O)O)cc4)c4nc(c(-c5ccc(C(=O)O)cc5)c5ccc2[nH]5)C=C4)C=C3)cc1 [TCPP, meso-Tetra (4-carboxyphenyl) porphine] | reversible | 53.49 ± 0.141 | 2.0~10.0 pH | static quenching | 4.60 ± 0.07 ×10^12 L/mol/s | 4.60 ± 0.07 ×10^4 L/mol | 1.30 | -8.076 ± 0.0096 | 4.59 ± 0.06 ×10^12 L/mol/s | 4.59 ± 0.06 ×10^4 L/mol | 1.26 | -7.945 ± 0.0311 | 4.50 ± 0.06 ×10^12 L/mol/s | 4.50 ± 0.06 ×10^4 L/mol | 1.16 | -7.739 ± 0.019 | -16.39 ± 0.017 | −116.60 ± 0.11 | hydrogen bonds and van der Waals forces | 1.19 | Vmax ([1]; inhibitor C 12.65 μM): 0.0042 ± 0.0011 ΔOD/min; Vmax ([1]; inhibitor C 31.61 μM): 0.0037 ± 0.0008 ΔOD/min; Vmax ([1]; inhibitor C 63.23 μM): 0.0027 ± 0.0012 ΔOD/min; Vmax ([1]; inhibitor C 126.45 μM): 0.0015 ± 0.0004 ΔOD/min; Vmax ([1]; inhibitor C 189.68 μM): 0.0012 ± 0.0003 ΔOD/min; Kd ([3]; T 304 K): 1.94 µM; Kd ([3]; T 310 K): 3.5 µM
